Measurements: US7517658B2, “Methods for preparing compositions using a SNORF33 receptor” (H. Lundbeck A/S, priority 1999, dated 2009)
Several values for one entry are separate records, joined by “and”; a condition that tells them apart may be missing. Identical values can stand only once. Like-named read-outs stand apart in the source and are kept apart here.

Key:
[1] = target: T1, rSNORF33 (Rattus norvegicus, UniProt Q923Y9); test: Cl- currents in Xenopus oocytes expressing rSNORF33 and CFTR (voltage clamp); assay type: cell-based; details: test compound 100 μM except where noted; 100 nM TYR
[2] = target: T1, rSNORF33; test: Intracellular cAMP release in rSNORF33-transfected COS-7 cells; assay type: cell-based; design: expressed in transfected cells; host or cells: COS-7 (transient); details: for Agonist activity at cloned rSNORF33 receptor: data not shown
Procedure: The receptor-mediated stimulation or inhibition of cyclic AMP (cAMP) formation may be assayed in cells expressing the mammalian receptors. Cells are plated in 96-well plates or other vessels and preincubated in a buffer such as HEPES buffered saline (NaCl (150 mM), CaCl2 (1 mM), KCl (5 mM), glucose (10 mM)) supplemented with a phosphodiesterase inhibitor such as 5 mM theophylline, with or without protease inhibitor cocktail (For example, a typical inhibitor cocktail contains 2 μg/ml aprotinin, […] leupeptin, and 10 μg/ml phosphoramidon.) for 20 min at 37° C., in 5% CO2. Test compounds are added with or without […] forskolin and incubated for an additional 10 min at 37° C. The medium is then aspirated and the reaction stopped by the addition of 100 mM HCl or other methods. The plates are stored at 4° C. for 15 min, and the cAMP content in the stopping solution is measured by radioimmunoassay. Radioactivity may be quantified using a gamma counter equipped with data reduction software. Specific modifications may be performed to optimize the assay for the receptor or to alter the detection method of cAMP.
COS-7 cells were transiently transfected with rSNORF33 gene using the calcium phosphate method and plated in 96-well plates. 48 hours after transfection, cells were washed twice with Dulbecco's phosphate buffered saline (PBS) supplemented with 10 mM HEPES, 10 mM glucose, 5 mM theophylline and 10 μM pargyline and were incubated in the same buffer for 20 min at 37° C., in […] 5% CO2. Test compounds were added and cells were incubated for an additional 10 min at 37° C. The medium was then aspirated and the reaction stopped by the addition of 100 mM HCl. The plates were stored at −20° C. for 2-5 days. For cAMP measurement, plates were thawed and the cAMP content in each well was measured by radioimmunoassay cAMP Scintillation Proximity Assay (Amersham Pharmacia Biotech). Radioactivity was quantified using microbeta Trilux counter (Wallac).

[3] = target: T1, rSNORF33; test: Cl- currents in Xenopus oocytes expressing rSNORF33 and CFTR (voltage clamp); assay type: cell-based; details: for Cl- currents elicited: at 100 μM
Procedure: Female Xenopus laevis (Xenopus-1, Ann Arbor, Mich.) were anesthetized in 0.2% tricain (3-aminobenzoic acid ethyl ester, Sigma Chemical Corp.) and a portion of ovary was removed using aseptic technique (Quick and Lester, 1994). Oocytes were defolliculated, using 3 mg/ml collagenase (Worthington Biochemical Corp., Freehold, N.J.) in a solution containing 82.5 mM NaCl, 2 mM KCl, 1 mM MgCl2 and 5 mM HEPES, pH 7.5, and injected (Nanoject, Drummond Scientific, Broomall, Pa.) 24 h later with 50-70 nl of individual mRNAs or mRNA mixtures (see below).
Elevation of intracellular cAMP is monitored in oocytes by expression of the cystic fibrosis transmembrane conductance regulator (CFTR) whose Cl^−-selective pore opens in response to phosphorylation by protein kinase A (Riordan, 1993). To prepare RNA transcripts for expression in oocytes, a template was created by PCR using 5′ and 3′ primers derived from the published sequence of the CFTR gene (Riordan, 1993). The 5′ primer included the sequence coding for T7 polymerase so that transcripts could be generated directly from the PCR products without cloning. Oocytes were injected with 10 ng of CFTR mRNA in addition to 10-15 ng mRNA for SNORF33. Electrophysiological recordings were made after a 2-3 day incubation at 18° C.
Dual electrode voltage clamp (“GeneClamp”, Axon Instruments Inc., Foster City, Calif.) was performed using 3 M KCl-filled glass microelectrodes having resistances of 1-3 Mohms. Unless otherwise specified, oocytes were voltage clamped at a holding potential of −80 mV. During recordings, oocytes were bathed in continuously flowing (1-3 ml/min) medium containing 96 mM NaCl, 2 mM KCl, 1.8 mM CaCl2, 1 mM MgCl2, and 5 mM HEPES, pH 7.5 (ND96). […] Experiments were carried out at room temperature. All values are expressed as mean±standard error of the mean.

[4] = target: T2, mouse SNORF33 (Mus musculus, UniProt Q923Y8); test: [3H]-TYR binding (saturation and displacement) to mouse SNORF33 COS-7 membranes; details: for Ki: mouse SNORF33, displacement of [3H]TYR, n=2, read-out: Average Ki
T2 construct: expressed in transfected cells; host or cells: COS-7 (membranes)
Procedure: (§1) [^3H]-TYR and [^3H]-T binding assays were performed essentially as described by Mallard et al. (1992), with minor modifications. Radioligand binding assays were performed by diluting membranes prepared from cells expressing the receptor (with co-expression of the rat G-protein alpha S subunit for human SNORF33) in 25 mM Gly-Gly buffer (Sigma, pH=7.4 @ 0° C.) containing 5 mM ascorbate and 10 μM pargyline (final protein concentration in assay=100-300 μg/ml). Membranes were then incubated with either [^3H]-TYR (American Radiochemicals, specific activity 60 mCi/μmole) or [^3H]-T (Amersham, specific activity 98 mCi/μmole) in the presence or absence of competing ligands on ice for 30 min in a total volume of 250 μl in 96 well microtiter plates. The bound ligand was separated from free by filtration through GF/B filters presoaked in 0.5% polyethyleneimine (PEI), using Tomtec (Wallac) or Brandel Cell Harvester vacuum filtration device. After addition of Ready Safe (Beckman) scintillation fluid, bound radioactivity was quantitated using a Trilux (Wallac) scintillation counter (approximately 20% counting efficiency of bound counts). Data was fit to non-linear curves using GraphPad Prism.
(§2) In this manner, agonist or antagonist compounds that bind to the receptor may be identified as they inhibit the binding of the labeled ligand to the membrane protein of cells expressing the said receptor. Non-specific binding was defined as the amount of radioactivity remaining after incubation of membrane protein in the presence of 10 μM of the unlabeled amine corresponding to the radioligand used. In equilibrium saturation binding assays, membrane preparations or intact cells transfected with the receptor are incubated in the presence of increasing concentrations of the labeled compound to determine the binding affinity of the labeled ligand. The binding affinities of unlabeled compounds may be determined in equilibrium competition binding assays, using a fixed concentration of labeled compound in the presence of varying concentrations of the displacing ligands.

[5] = target: T1, rSNORF33; test: [3H]-TYR binding (saturation and displacement) to rSNORF33-transfected COS-7 membranes; design: expressed in transfected cells; host or cells: COS-7 (transient); details: for Ki: rSNORF33 in transfected COS-7 membranes, 2–4 experiments, read-out: Mean Ki ± S.D.M., displacement of [3H]-tyramine
Procedure: as §1, with “Radioligand” for “[^3H]-TYR and [^3H]-T binding assays were performed essentially as described by Mallard et al. (1992), with minor modifications. Radioligand”
as §2

[6] = target: T3, hSNORF33 (Homo sapiens, UniProt Q96RJ0); test: [3H]-TYR binding (saturation and displacement) to human SNORF33 COS-7 membranes; design: expressed in transfected cells; host or cells: COS-7 (membranes); details: for Ki: human SNORF33 in transfected COS-7 membranes
T3 sequence (Q96RJ0 1-339): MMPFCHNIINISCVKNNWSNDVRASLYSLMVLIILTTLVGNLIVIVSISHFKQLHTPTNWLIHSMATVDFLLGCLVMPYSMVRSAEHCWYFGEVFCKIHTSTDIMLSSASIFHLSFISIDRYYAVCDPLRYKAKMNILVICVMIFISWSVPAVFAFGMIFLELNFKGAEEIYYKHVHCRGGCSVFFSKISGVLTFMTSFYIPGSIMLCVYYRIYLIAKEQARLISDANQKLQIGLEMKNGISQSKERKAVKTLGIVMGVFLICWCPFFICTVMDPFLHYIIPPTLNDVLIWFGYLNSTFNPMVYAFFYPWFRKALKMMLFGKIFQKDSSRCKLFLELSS
Procedure: as §1, §2

[7] = transiently transfected COS-7 cells, 3–8 experiments, read-out: Mean EC50 ± S.E.M., stimulation of rSNORF33 measured by intracellular cAMP release
[8] = read-out: Ki, displacement of [3H]-tyramine
[9] = read-out: Mean Ki ± S.D.M., displacement of [3H]-tyramine

T1 sequence (Q923Y9 whole entry): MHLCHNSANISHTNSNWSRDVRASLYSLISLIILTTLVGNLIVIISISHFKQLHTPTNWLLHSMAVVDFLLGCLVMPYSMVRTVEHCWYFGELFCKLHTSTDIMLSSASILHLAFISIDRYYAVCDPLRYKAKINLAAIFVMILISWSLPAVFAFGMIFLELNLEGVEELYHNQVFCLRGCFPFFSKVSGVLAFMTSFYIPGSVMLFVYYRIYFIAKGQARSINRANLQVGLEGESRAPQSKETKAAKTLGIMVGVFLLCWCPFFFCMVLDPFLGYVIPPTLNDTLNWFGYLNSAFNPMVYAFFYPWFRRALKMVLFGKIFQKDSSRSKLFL
T2 sequence (Q923Y8 whole entry): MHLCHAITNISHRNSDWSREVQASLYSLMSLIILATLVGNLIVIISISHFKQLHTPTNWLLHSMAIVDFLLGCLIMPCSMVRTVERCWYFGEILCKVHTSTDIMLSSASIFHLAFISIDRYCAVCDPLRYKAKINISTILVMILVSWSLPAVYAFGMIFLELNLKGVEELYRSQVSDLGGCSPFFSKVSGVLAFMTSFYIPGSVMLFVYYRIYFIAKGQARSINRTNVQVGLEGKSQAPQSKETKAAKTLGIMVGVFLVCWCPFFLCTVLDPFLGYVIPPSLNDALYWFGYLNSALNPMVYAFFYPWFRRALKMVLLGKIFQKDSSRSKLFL

For `Cc1ccc(N(CC2=NCCN2)c2cccc(O)c2)cc1` [phentolamine], which “Antagonism of TYR stimulation of rSNORF33” value (“Antagonism” for short) [1] is on record?
Its value is “agonist effect”.

With `NCCc1c[nH]c2ccc(F)cc12` [5-Fluoro-Tryptamine] as the molecule, how does the EC50 [2, 7] read?
Its EC50 is 232 ± 38 nM.

`NCCc1ccc(O)c(O)c1` [Dopamine (DA), Dopamine] was tested. Which “Cl- currents elicited” value [3] did it give?
The value was “more weakly”.

For `C1CNCCN1` [piperazine], which Ki [4] is on record?
Its Ki is 1950 nM.

What about the Ki [5] of the same molecule?
Its Ki is 82 nM.

What about the Ki [6, 8] of the same molecule?
Its Ki is greater than 10000 nM.

With `NCCc1c[nH]c2ccc(O)cc12` [Serotonin (5-HT), 5-Hydroxytryptamine] as the molecule, how does the “Cl- currents elicited” value [3] read?
The value was “more weakly”.

And the EC50 ([3]; oocytes expressing rSNORF33 and CFTR, -80 mV, mean ± S.E.M., read-out: Calculated EC50, Cl- current)?
Its EC50 is 3776 ± 3.17 nM.

What about the “Fold less potent than the three trace amines (TYR, PEA, T) in activating rSNORF33” value ([2]; cAMP assay) of the same molecule?
The value was 70 fold.

And the EC50 [2, 7]?
The EC50 was 1240 ± 526 nM.

What about the Ki [5] of the same molecule?
The Ki was 976 ± 120 nM.

With `CN1CCN2c3ccccc3Cc3ccccc3C2C1` (stereo not drawn) [mianserin] as the molecule, how does the “Antagonism” value [1] read?
The value was “did not significantly inhibit”.

With `COC(=O)[C@@H]1[C@H]2C[C@H]3c4[nH]c5ccccc5c4CCN3C[C@@H]2CC[C@@H]1O` [yohimbine] as the molecule, how does the “Antagonism” value [1] read?
Its value is “did not significantly inhibit”.

What does the source list for `NCCC(=O)c1ccccc1N` [Kynuramine]?
EC50 [2, 7]: 90 ± 20 nM; Ki [5]: 485 ± 9 nM; Ki [6, 9]: 1390 ± 810 nM

For `NCCc1cccc(O)c1` [3-OH-PEA], which Ki [5] is on record?
Its Ki is 529 ± 236 nM.

What about the Ki [6, 9] of the same molecule?
Its Ki is 79 ± 16 nM.

For `CNCCCN1c2ccccc2CCc2ccccc21` [Desipramine], which EC50 [2, 7] is on record?
Its EC50 is 4300 ± 1870 nM.

Which results are given for `Cl.Cl.Clc1cccc(N2CCNCC2)c1` [m-CPP, 1-(3-chlorophenyl)piperazine dihydrochloride]?
Ki [4]: 3550 nM; Ki [5]: 83 nM; Displacement of [3H]TYR binding ([6]; human SNORF33, up to 10 μM): no displacement; Ki [6, 8]: > 10000 nM

`Cc1ccc2[nH]cc(CCN)c2c1` [5-Methyl-Tryptamine] was tested. Which EC50 [2, 7] did it give?
The EC50 was 752 ± 285 nM.

How did the “Antagonism” value [1] turn out when `CC(C)NCC(O)COc1cccc2[nH]ccc12` (stereo not drawn) [pindolol] was run?
The value was “significantly block”.

For `CC(N)C(O)c1ccccc1` (stereo not drawn) [Phenylpropanolamine (PPA), Phenylpropanolamine], which EC50 [2] is on record?
The EC50 was 1800 ± 1380 nM.

For `CC(COc1ccccc1)N(CCCl)Cc1ccccc1` (stereo not drawn) [Phenoxybenzamine], which “Antagonism” value [1] is on record?
The value was “irreversible inhibition”.

How did the “Antagonism” value [1] turn out when `CC(C)NCC(O)COc1cccc2ccccc12` (stereo not drawn) [propanolol] was run?
The value was “significantly block”.

Which “Antagonism” value [1] does the source give for `CN1C[C@H](CNC(=O)OCc2ccccc2)C[C@@H]2c3cccc4c3c(cn4C)C[C@H]21` [metergoline] here?
The value was “significantly block”.

Which “Agonist activity at cloned rSNORF33 receptor” value [2] does the source give for `NC[C@H](O)c1ccc(O)c(O)c1` [NE, norepinephrine] here?
The value was “inactive”.

Which EC50 [2, 7] does the source give for `CN[C@@H](C)Cc1ccccc1` [Methamphetamine] here?
The EC50 was 115 ± 66 nM.

What about the Ki [5] of the same molecule?
The Ki was 391 ± 246 nM.

And the Ki [6, 9]?
Its Ki is 189 ± 102 nM.

Which results are given for `NCCc1ccc(O)cc1` [[^3H]-TYR]?
Specific binding as % of total binding ([4]; at about 15 nM [3H]-TYR, mouse SNORF33): approximately 94%; Bmax, saturation binding ([4]; mouse SNORF33 membranes): 1090 fmol/mg protein and 848 fmol/mg protein; Specific binding ([5]; 20 nM radioligand, rSNORF33): 90%; Bmax, saturation binding ([5]; rSNORF33 COS-7 membranes, n=2): 1400 fmol/mg protein and 1164 fmol/mg protein; Kd ([5]; rSNORF33 COS-7 membranes, n=2): 12.5 nM and 14.8 nM; Specific binding as % of total binding ([6]; at about 15 nM [3H]-TYR, human SNORF33): ~70%; Bmax, saturation binding ([6]; human SNORF33 membranes): 440 fmol/mg protein and 603 fmol/mg protein

`c1ccc(C2CC2)c(OCC2=NCCN2)c1` [cirazoline] was tested. Which “Inhibition of the response to TYR” value ([3]; test compound 100 μM except where noted, 100 nM TYR (EC80)) did it give?
The value was “greater than 90%”.

How did the “Agonist activity at cloned rSNORF33 receptor” value [2] turn out when `NCCc1c[nH]cn1` [histamine] was run?
The value was “inactive”.

For `COC(=O)[C@H]1[C@H]2C[C@H]3c4[nH]c5ccccc5c4CCN3C[C@H]2CC[C@@H]1O` [rauwolscine], which “Antagonism” value [1] is on record?
The value was “did not significantly inhibit”.

For `COc1ccc2[nH]cc(CCN)c2c1` [5-Methoxy-Tryptamine], which EC50 [2, 7] is on record?
The EC50 was 414 ± 161 nM.

And the Ki [5]?
Its Ki is 209 ± 68 nM.
